Measured values: publication PMC4639830, “Inhibition of DYRK1A and GSK3B induces human β-cell proliferation” (Nature Communications, 2015)

Experiments:
[1] = test system: human islets in STZ-treated NSG mice; test: Human islets transplanted under kidney capsule of STZ-treated NSG mice, oral dosing; assay type: in vivo, mouse; details: 50 mg kg^−1, twice daily, 9 days
Excerpt: All animal care and experimental procedures were approved by the Institutional Animal Care and Use Committee (IACUC) of Genomics Institute of the Novartis Research Foundation and strictly followed the NIH guidelines for humane treatment of animals. The double transgenic RIP-DTA male mice (Tg(Ins2-rtTA)2Efr Tg(teto-DTA)1Gfi/J; Jackson Laboratory, Stock # 008755) were bred in-house and were maintained in a 12-h light/12-dark cycle environment with controlled temperature, humidity and ventilation. Animals were housed 3–5 mice per cage and had free access to water and standard laboratory chow. […] Blood glucose levels were measured from tail-vein blood with a glucometer (AlphaTrak2 Monitoring System; Abbott). […] Body weight and blood glucose were monitored every third day. […] Pancreatic insulin content was determined by MSD (meso-scale discovery). […] Baseline body weight and tail-vein blood glucose measurements were recorded before diabetic induction. To obtain a diabetic state, animals were given an intraperitoneal dose of STZ (135 mg kg^−1) and blood glucose was monitored before transplant. […]
Human islets (obtained commercially from Prodo Laboratories Inc.) were recovered for 48 h before transplantation. […] While mice were prepared, islets were counted according to IEQs and prepared into islet suspension of 800 IEQ/mouse in cold PBS. […]

[2] = test system: diabetic RIP-DTA mice; test: RIP-DTA mouse model of T1D; assay type: in vivo; details: 50 mg kg^−1 twice daily
Excerpt: All animal care and experimental procedures were approved by the Institutional Animal Care and Use Committee (IACUC) of Genomics Institute of the Novartis Research Foundation and strictly followed the NIH guidelines for humane treatment of animals. The double transgenic RIP-DTA male mice (Tg(Ins2-rtTA)2Efr Tg(teto-DTA)1Gfi/J; Jackson Laboratory, Stock # 008755) were bred in-house and were maintained in a 12-h light/12-dark cycle environment with controlled temperature, humidity and ventilation. Animals were housed 3–5 mice per cage and had free access to water and standard laboratory chow. To induce pancreatic β-cell ablation and hyperglycaemia, doxycycline (200 μg ml^−1, Sigma-Aldrich) was provided in the drinking water for 5 days. Blood glucose levels were measured from tail-vein blood with a glucometer (AlphaTrak2 Monitoring System; Abbott). Experimental groups of 14 male mice each were randomized based on similar body weights (28.8±2.4 g), age (82±2 days), and blood glucose levels (428±96 mg dl^−1). Group sizes of eight animals each are sufficient to reliably detect changes in glycaemic control and β-cell mass based on historical data with reference compounds; an additional six mice were added to each group to assess total pancreatic insulin levels. […] A sub-set of animals were not given doxycycline treatment and were used as a non-diabetic vehicle–control group. All compounds were administered daily via oral gavage (4 ml kg^−1). Body weight and blood glucose were monitored every third day. An oral glucose tolerance test was performed after an overnight fast on day 12. For the insulin tolerance test, mice were fasted for 4 h before the administration of insulin (Novolin, Novo Nordisk, 0.7 U kg^−1 body weight, i.p.). Pancreatic insulin content was determined by MSD (meso-scale discovery). […] To determine β-cell proliferation and β-cell mass by morphological analyses, pancreata from the rest of animals (n=8) were rapidly dissected, fixed in formalin, sectioned and immunostained for insulin, Ki67 and BrdU on day 16. Male NSG mice, aged 8 weeks, were obtained from the Jackson Laboratory (Strain NOD.Cg-Prkdc^scid Il2rg^tm1Wjl/SzJ; Stock number 005557) and housed according to IACUC guidelines. Baseline body weight and tail-vein blood glucose measurements were recorded before diabetic induction. To obtain a diabetic state, animals were given an intraperitoneal dose of STZ (135 mg kg^−1) and blood glucose was monitored before transplant. Mice were grouped according to body weight and blood glucose level on the day of transplants (72 h after STZ treatment).
Pancreas specimens were harvested, weighed, fixed in 10% neutral buffered formalin and processed using standard paraffin processing techniques. Five micrometre serial-step sections were mounted onto Superfrost Plus slides and air-dried overnight. Samples were coded before histologic analyses resulting in blinded processing and staining. Routine hematoxylin and eosin (H&E) stains were performed on all specimens. Immunostaining was performed using the Ventana Discovery XT system. All epitope retrieval was done on the instrument using CC1 reagent. Chromogenic insulin was detected using guinea pig anti-insulin (Dako Corp A0564) at 1:3,200 and the Blue Map kit, after serum blocking and endogenous biotin blocking was performed, slides were then counterstained with Nuclear Fast Red. Fluorescent insulin and Ki67 double stains used a cocktail of the Dako anti-insulin at 1:1,600 and rabbit monoclonal Ki67 (Thermo RM9106) at 1:100, and were detected using a cocktail of Alexa Fluor 488 and 594-labelled secondary antibodies. Auto-fluorescence was quenched in red blood cells and reduced in connective tissue by treatment with 10 mM copper sulfate. Slides were counterstained with DAPI. 21 slides were collected per block. All slides were imaged on the Hamamatsu Nanozoomer and evaluated for β-cell mass and proliferation. […]

[3] = test system: Wnt-driven luciferase reporter in TM3 cells; test: Wnt-driven luciferase reporter gene (Super Top Flash); assay type: cell-based
Excerpt: Supplementary Figure 8. Selective Dyrk1a inhibition is sufficient to induce β-cell proliferation.
Top Flash) in TM3 cells (mean ± SD; n=3). (b) GNF6324-treated primary rat islets were
immunostained for nuclear localization of β-catenin in EdU and insulin co-positive cells. Co-
vehicle control cells. Scale bar = 20 µm. (c-e) Selective Dyrk1a inhibitors stimulate EdU
Beta-catenin/Insulin/DAPI
% E d U (+ ) b e ta c e lls
% E d U (+ ) in s u lin (+ ) c e lls […]
% E d U ( + ) in s u lin (+ ) c e lls C o n tro l
(1 picture or pasted object on this page, not shown here)

[4] = test system: NFATc1-GFP localization in Ins1 cells; test: NFATc1-GFP nuclear localization; assay type: cell-based; details: low glucose
Excerpt: Figure 6 AP compounds induce β-cell proliferation through activation of the calcineurin–NFAT pathway. (a) AP compounds stimulate NFATc1-GFP nuclear localization. […] Scale bar, 50 μm. […] Scale bar, 50 μm.

[5] = test system: FAK2 (PTK2); test: Kinase profiling; assay type: biochemical, human
Excerpt: ; Fig. 5a; Supplementary Table 1). We focused on Dyrk1a because other kinases inhibited by aminopyrazine compounds were not highly expressed in β-cells and because Dyrk1a was known to inhibit the NFAT pathway that was previously implicated in β-cell proliferation. We used molecular modelling to dock the aminopyrazine compounds into the published structure of Dyrk1a (protein databank accession code 2vx3.pdb; Fig. 5b).

[6] = test system: human islets transplanted into STZ-treated NOD-SCID mice; test: Transplantation of compound-treated human islets into STZ-treated NOD-SCID mice; assay type: in vivo, mouse; details: islets treated in vitro before transplantation
Excerpt: Figure 2 AP compounds expand human islets ex vivo with retention of function after transplantation. […] (a) Immunofluorescence for insulin, Ki67 and DAPI on DMSO or GNF4877-treated human intact islets (scale bar, 50 μm). (b) Quantification of Ki67+ as a percent of total insulin+ cells (n=3). […] Data are shown as mean±s.d. (six mice per group; transplanted with islets from a single human donor). […] Data shown as mean±s.d.; (n=6 mice/group, *P<0.05, Student's t-test).
We tested whether aminopyrazine treatment of islets compromised their ability to secrete insulin in vitro and, after transplantation, in vivo.

SMILES | glucose control (fed glucose levels) [1] | oral glucose tolerance vs vehicle ([2]; 14 days of dosing) | body weight, appearance or behaviour vs vehicle ([2]; oral) | insulin tolerance vs vehicle ([2]; oral) | non-fasting blood glucose levels ([2]; oral) | β-cell mass, increase vs vehicle-treated diabetic mice ([2]; oral, 14 days) [fold] | insulin content, increase vs vehicle-treated diabetic mice ([2]; oral, whole pancreas lysate, 15 days) | induction of Wnt-driven luciferase reporter gene [3] | NFATc1-GFP nuclear localization [4] | Percent inhibition, FAK2 (PTK2) ([5]; Conc 200 nM) [%] | Percent inhibition, FAK2 (PTK2) ([5]; Conc 1000 nM) [%] | euglycemia after transplantation of treated islets [6]
CC(C)Oc1ccc(F)c(-c2cnc(N)c(C(=O)Nc3cnccc3N3CCC[C@@H](C(=O)O)C3)n2)c1 [GNF4877] | trend towards improved glucose control | dramatically improved glucose tolerance | did not show any difference in body weight | without a significant difference in insulin tolerance | progressive reduction of non-fasting blood glucose levels | ~1.5 | twofold | induce a Wnt-driven luciferase reporter gene | caused marked nuclear localization of NFATc1-GFP | 9 | 70 | –
Nc1ncc(-c2ccccc2)nc1C(=O)Nc1cnccc1N1CCC(C(=O)O)CC1 [GNF7156] | – | – | – | – | – | – | – | induce a Wnt-driven luciferase reporter gene | caused marked nuclear localization of NFATc1-GFP | – | 92 | maintained the ability to preserve euglycemia
